{
  "source": "patent US20240398843A1",
  "about": "“GLYCYRRHIZIN-BRANCHED POLYETHYLENE GLYCOL CONJUGATE FOR TREATING CANCER” (IUCF-HYU (INDUSTRY-UNIVERSITY COOPERATION FOUNDATION …, priority 2021, published 2024)",
  "key": {"[1]": {"test": "Dynamic light scattering (DLS) particle size, incl. shielding effect check in 10% FBS DW", "format": "physicochemical", "settings": "for DLS size, first listed population / DLS size, second listed population / proportion of first listed population / proportion of second listed population: 10% FBS DW", "excerpt": "When bPEG was conjugated, a stabilized nano size of approximately 300 nm was observed (FIG. 6)."}, "[2]": {"test": "In vivo distribution (organ fluorescence, FOBI)", "settings": "FITC-labelled, tail vein, C57BL mouse", "description": "Each of GL-FITC and bPEG-GL-FITC was dissolved in 1.5 mL of PBS at a concentration of 125 μg/mL based on GL. 100 μL each of the GL-FITC and bPEG-GL-FITC solutions was injected into the tail vein of a C57BL mouse. When a preset time (10 min, 30 min, 3 hr, 6 hr, and 24 hr) passed, the mice were sacrificed, organs were removed, and then fluorescence images were confirmed using FOBI."}, "[3]": {"test_system": "HepG2 cells", "test": "Cell cycle arrest assay (PI, FACS)", "format": "cell-based", "settings": "24 hours", "description": "HepG2 cells were seeded in a 6-well plate at 4×10^5 cells/well and cultured (3 wells for each treated group). The cells were classified into a control (con; untreated group), GL-treated groups (250 and 500 μg/mL), bPEG-GL-treated groups (GL equi 250 and 500 μg/mL), and a bPEG (GL equi 500 μg/mL)-treated group, treated with corresponding materials, and cultured for 24 hours. After the cells were recovered and counted, 1×10^6 cells were obtained for each experimental group. The cells were washed with PBS and fixed with 70% ethanol (cell membrane disruption). The cells were treated with 50 μL of ribonuclease A (100 μg/mL) and 200 μL of propidium iodide (PI; 50 μg/mL). The cells were washed and suspended in 500 μL of PBS, and then FACS was performed."}, "[4]": {"test_system": "HepG2 cells", "test": "Apoptosis assay (annexin V/PI, FACS)", "format": "cell-based", "settings": "24 hours", "description": "HepG2 cells were seeded in a 60 mm well plate at 2×10^5 cells/well and cultured (3 wells for each treatment group). The cells were classified as follows, treated with corresponding materials, and cultured for 24 hours: Control (con; untreated group), GL-treated groups (250, 500, and 1,000 μg/mL), bPEG-GL-treated groups (900, 1,800, and 3,600 μg/mL; GL equivalent concentrations of 250, 500, and 1,000 μg/mL), and bPEG-treated groups (1,300 and 2,600 μg/mL; bPEG-GL equivalent concentrations of 1,800 and 3,600 μg/mL).\nAfter the culture, the medium was aspirated to remove the treated material, and the cells were washed twice with a cell-staining buffer. After the cells were recovered and counted, 5×10^5 cells were obtained for each experimental group. The cell culture solution was centrifuged to remove the supernatant, and then the cells were suspended in 100 μL of annexin V-binding buffer. The cell suspension was transferred to an FACS tube, and 5 μL of annexin V and 10 μL of PI solution were added. Subsequently, the FACS tube was left in a dark room at room temperature for 15 minutes. 400 μL of PBS was added to each FACS tube and analyzed by FACS in appropriate settings."}, "[5]": {"test_system": "red blood cells", "test": "In vitro blood hemolysis", "settings": "0.2 to 1 mg/mL, 37° C., 1 hour", "description": "1 to 2 mL of blood was put into a 2 mL tube, filled with PBS, and centrifuged at 3,000 rpm for 2 minutes. The supernatant was removed, the vial was filled again with PBS, and centrifuged, and this process was repeated 2 to 3 times. 20 μL of a red blood pellet was dispensed into a 1.5 mL tube. DW, for example, 80% DW/PBS, 60% DW/PBS, 40% DW/PBS, 20% DW/PBS, or PBS was added to a control without separate material treatment, and the volumes was adjusted to 1.5 mL. In the experimental group, 1 mL of a bPEG-GL (3.6 mg/mL, 2.88 mg/mL, 2.16 mg/mL, 1.44 mg/mL, 0.72 mg/mL; GL equivalent concentration) solution was added to each tube.\nThe tubes were left in a 37° C. water bath for 1 hour and then centrifuged at 800 rpm for 5 minutes."}, "[6]": {"test_system": "HepG2 cells", "test": "Wound healing assay", "format": "cell-based", "settings": "HepG2, 500 μg/mL GL or GL equivalent, 24-hour culture", "description": "HepG2 cells were seeded in a 6-well plate at 3×10^5 cells/well and cultured until 100% confluence. When the well was filled with cells, a wound was made by drawing a line in the center of the well using a 200 μL micropipette tip. The cells were washed with PBS, and treated with each of 500 μg/mL of GL, 500 μg/mL of bPEG-GL, which is a GL equivalent concentration, and a bPEG solution at the same amount of bPEG that dissolved in 500 μg/mL of bPEG-GL. After 24-hour culture, the width of the wound was confirmed. […] The cell migration rate was calculated according to Equation 1.\nRate of cell migration(RM)=(Wi−Wf)/t [Equation 1] • (Wi=initial wound width, Wf=final wound width, t=duration of migration)"}, "[7]": {"test": "In vivo pharmacokinetics (plasma, HPLC)", "settings": "intravenous, mouse, tail vein, 5 mg/kg GL", "description": "5 mg/kg of GL or 18 mg/kg of bPEG-GL (a GL equivalent amount of the GL-administered group) was injected into the tail vein of a mouse. The mouse was sacrificed at a designated time point after injection and blood was collected through cardiac puncture. The blood collection times were as follows: 1, 3, 5, 10, 30, 60, 120, 150, 360, 720, 1080, and 1440 min (n=4 at each time). The collected blood was centrifuged at 3000 rpm and 4° C. for 20 minutes. Only the plasma, which is the supernatant, was recovered, and 50 μL of the plasma and 100 μL of methyl alcohol (HPLC grade) were mixed and vortexed for 10 minutes. Afterward, the resulting product was centrifuged at 10000 g for 10 minutes. 100 μL of the supernatant was mixed with 900 μL of a mobile phase, and the resulting mixture was filtered using a 0.45 μm syringe filter.\nThe mobile phase consisted of methanol, acetonitrile, water, and acetic acid in a ratio of 55:23.7:19.2:0.68. The standard curve required for HPLC analysis was prepared as follows: each of 1 mg of GL and 1.8 mg of bPEG-GL was dissolved in 1 mL of the mouse serum. […] HPLC was performed on the blood samples and various concentrations of the GL/serum solutions using a C8 reverse column: flow rate: 1 mL/min; column temperature: 35° C.; UV absorbance: 251 nm; and sample injection amount: 20 μL."}},
  "data": [
    {"smiles": "CC1(C)[C@@H](O[C@H]2O[C@H](C(=O)O)[C@@H](O)[C@H](O)[C@H]2O[C@@H]2O[C@H](C(=O)O)[C@@H](O)[C@H](O)[C@H]2O)CC[C@]2(C)[C@H]3C(=O)C=C4[C@@H]5C[C@@](C)(C(=O)O)CC[C@]5(C)CC[C@@]4(C)[C@]3(C)CC[C@@H]12", "note": "[GL, Glycyrrhizin]", "values": [
      {"measurement": "size by dynamic light scattering particle size analyzer", "setting": "[1]", "value": 50, "unit": "nm"},
      {"measurement": "DLS size, first listed population", "setting": "[1]; 30 min", "value": 159.7, "unit": "nm"},
      {"measurement": "DLS size, second listed population", "setting": "[1]; 30 min", "value": 10.38, "unit": "nm"},
      {"measurement": "proportion of first listed population", "setting": "[1]; 30 min", "value": 75.50, "unit": "%"},
      {"measurement": "proportion of second listed population", "setting": "[1]; 30 min", "value": 24.15, "unit": "%"},
      {"measurement": "DLS size, first listed population", "setting": "[1]; 1 h", "value": 54.5, "unit": "nm"},
      {"measurement": "DLS size, second listed population", "setting": "[1]; 1 h", "value": 295.03, "unit": "nm"},
      {"measurement": "proportion of first listed population", "setting": "[1]; 1 h", "value": 47.83, "unit": "%"},
      {"measurement": "proportion of second listed population", "setting": "[1]; 1 h", "value": 31.06, "unit": "%"},
      {"measurement": "size of newly observed particles", "setting": "[1]; DW with 10% FBS, after 1 hour", "value": "approximately 300 nm"},
      {"measurement": "organ fluorescence", "setting": "[2]; 10 minutes after injection", "value": "fluorescence was visible in the liver and kidney"},
      {"measurement": "organ fluorescence", "setting": "[2]; later time points up to 24 hr", "value": "no fluorescence was observed in the corresponding organs at later time points"},
      {"measurement": "cell cycle phase compared to control", "setting": "[3]; HepG2, 250 and 500 μg/mL (GL equivalent)", "value": "cell cycles remained in the G0/G1 phase compared to the control"},
      {"measurement": "concentration dependence of cell cycle arrest", "setting": "[3]; HepG2, 500 vs 250 μg/mL", "value": "higher cell cycle arrest effects at 500 μg/mL, compared to that at 250 μg/mL"},
      {"measurement": "proportion of apoptotic cells", "setting": "[4]; HepG2, GL equivalent concentration of 500 μg/mL", "value": 9.63, "unit": "%"},
      {"measurement": "proportion of apoptotic cells", "setting": "[4]; HepG2, GL equivalent concentration of 1 mg/mL", "value": 10.86, "unit": "%"},
      {"measurement": "toxicity to blood cells (hemolysis)", "setting": "[5]", "value": "did not exhibit toxicity to blood cells"},
      {"measurement": "width of wound / cell migration", "setting": "[6]", "value": "inhibitory effect on cell migration"},
      {"measurement": "half-life", "setting": "[7]", "value": "~4", "unit": "min"}
    ]}
  ]
}
